Source: the NIST ThermoML archive (doi:10.1016/j.tca.2019.178431)
Numbers after ± are expanded uncertainties.

Key:
[1] = Crystal; DTA
[2] = Molar enthalpy of transition or fusion; details: Crystal; DSC

## Clc1ccccc1C(c1ccccc1)(c1ccccc1)n1ccnc1 [1-((2-chlorophenyl)diphenylmethyl)-1H-imidazole]
[1]
  Normal melting temperature: 143.00 ± 0.4 °C
[2]
  Molar enthalpy of transition or fusion: 8.36 ± 0.203 kcal/mol
